Measurements as given in ChEMBL document CHEMBL1201862, “PubChem BioAssay data set” (2004).
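Cultured in 96-well plates, cells were exposed to test compound for 48 hours across five concentrations. Here, GI50 denotes the concentration required for 50% inhibition of growth.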 Active and inactive are the calls of the source. Rule as the data show it: active = GI50 up to about 1.1 µM and inactive = higher.

Tests used:
Experiment in all cases: DTP human tumour cell line panel, 48 h
[1] = test system: ACHN
[2] = test system: EKVX
[3] = test system: SK-MEL-28
[4] = test system: NCI-H522
[5] = test system: Hs-578T
[6] = test system: SNB-19
[7] = test system: HT-29
[8] = test system: MOLT-4
[9] = test system: CAKI-1
[10] = test system: IGROV-1
[11] = test system: SR
[12] = test system: MDA-MB-231
[13] = test system: COLO 205
[14] = test system: A498
[15] = test system: HCT-15
[16] = test system: SF-268
[17] = test system: NCI/ADR-RES
[18] = test system: OVCAR-4
[19] = test system: K562
[20] = test system: UACC-62
[21] = test system: UO-31
[22] = test system: SK-MEL-2
[23] = test system: MDA-MB-435
[24] = test system: U-251
[25] = test system: SF-295
[26] = test system: SW-620
[27] = test system: 786-0
[28] = test system: KM12
[29] = test system: SK-OV-3
[30] = test system: BT-549
[31] = test system: CCRF-CEM
[32] = test system: SN12C
[33] = test system: HOP-92
[34] = test system: NCI-H226
[35] = test system: NCI-H23
[36] = test system: HL-60
[37] = test system: M14
[38] = test system: HCT-116
[39] = test system: SK-MEL-5
[40] = test system: MCF7
[41] = test system: OVCAR-8
[42] = test system: LOX IMVI
[43] = test system: UACC-257
[44] = test system: OVCAR-5
[45] = test system: TK-10
[46] = test system: SF-539
[47] = test system: HCC 2998
[48] = test system: A549
[49] = test system: HOP-62
[50] = test system: Malme-3M
[51] = test system: NCI-H460
[52] = test system: T47D
[53] = test system: OVCAR-3
[54] = test system: SNB-75
[55] = test system: RXF 393
[56] = test system: PC-3
[57] = test system: DU-145
[58] = test system: RPMI-8226

Measured: GI50

C=C(CCC(C)C1CCC2C3=C(C(=O)CC21C)C1(C)CCC(=O)[C@@H](C)C1CC3=O)C(C)C(=O)O (stereo partly specified)
inactive: [1] 29.9 µM | [2] 78.7 µM | [3] > 100 µM | [4] 45.8 µM | [5] > 100 µM | [6] > 100 µM | [7] 87.7 µM | [8] 40.2 µM | [9] 30.7 µM | [10] 42.6 µM | [11] 35.2 µM | [12] 39.3 µM | [13] 45.1 µM | [14] > 100 µM | [16] > 100 µM | [17] > 100 µM | [18] 48.1 µM | [19] 18.6 µM | [20] 49.5 µM | [21] 15.2 µM | [22] > 100 µM | [23] 65.6 µM | [24] 56.5 µM | [25] 53.2 µM | [26] 68.2 µM | [27] 18.3 µM | [28] 85.5 µM | [30] 47.3 µM | [31] 22.2 µM | [32] > 100 µM | [33] 30.8 µM | [34] > 100 µM | [35] 38.9 µM | [36] 14.7 µM | [37] > 100 µM | [38] 50.9 µM | [39] 31 µM | [40] > 100 µM | [41] 61 µM | [42] 17.4 µM | [43] 46.9 µM | [44] > 100 µM | [45] > 100 µM | [46] > 100 µM | [47] 98.2 µM | [48] > 100 µM | [49] 35.3 µM | [50] > 100 µM | [51] 34 µM | [52] 30.7 µM | [53] 60.1 µM | [54] 42.4 µM | [55] 18 µM | [56] 33.6 µM | [57] > 100 µM
active: [29] 0.51 µM
77.8 µM: [15]

CCCCCCCCCCCCCCCCCc1cc(Cl)nc(Cl)n1
inactive: [1] > 100 µM | [2] > 100 µM | [3] > 100 µM | [5] > 100 µM | [6] > 100 µM | [7] > 100 µM | [8] > 100 µM | [10] > 100 µM | [11] > 100 µM | [16] > 100 µM | [17] > 100 µM | [18] > 100 µM | [19] > 100 µM | [58] 43.7 µM | [20] > 100 µM | [21] > 100 µM | [22] > 100 µM | [23] > 100 µM | [24] > 100 µM | [25] > 100 µM | [26] > 100 µM | [27] > 100 µM | [28] > 100 µM | [29] > 100 µM | [30] > 100 µM | [31] > 100 µM | [32] > 100 µM | [34] > 100 µM | [35] > 100 µM | [36] 50.8 µM | [37] > 100 µM | [39] > 100 µM | [40] 36.6 µM | [41] > 100 µM | [42] > 100 µM | [43] > 100 µM | [44] > 100 µM | [45] > 100 µM | [46] > 100 µM | [47] > 100 µM | [48] > 100 µM | [49] > 100 µM | [50] > 100 µM | [51] > 100 µM | [53] > 100 µM | [54] > 100 µM | [55] > 100 µM | [56] > 100 µM
> 100 µM: [15]

O=S(=O)(c1ccc(NC(=S)N/N=C/c2ccccc2O)cc1)N1CCCCC1
< 0.01 µM: [15]
active: [1] < 0.01 µM | [6] 0.879 µM | [13] 0.773 µM | [14] 0.264 µM | [16] 0.0446 µM | [17] 0.0676 µM | [19] 0.341 µM | [58] 0.214 µM | [20] < 0.01 µM | [22] 0.459 µM | [23] 0.302 µM | [25] 0.0656 µM | [26] < 0.01 µM | [27] 0.188 µM | [29] 0.39 µM | [31] < 0.023 µM | [34] 0.151 µM | [35] 0.281 µM | [37] 0.0771 µM | [39] < 0.01 µM | [40] 0.255 µM | [42] < 0.01 µM | [43] 0.735 µM | [44] 0.269 µM | [45] < 0.0457 µM | [46] 0.326 µM | [48] 0.255 µM | [49] 0.114 µM | [50] 0.181 µM | [52] 0.419 µM | [53] < 0.0498 µM | [56] 0.191 µM
inactive: [2] 1.29 µM | [3] 1.21 µM | [4] 1.61 µM | [5] 1.91 µM | [7] 7.73 µM | [10] 1.73 µM | [21] 1.29 µM | [30] 37.8 µM | [33] 12.2 µM | [54] 1.36 µM | [55] 56.8 µM

N#Cc1c(-c2ccc(Cl)cc2)[nH]c(=O)n(C2OC(CO)C(O)C(O)C2O)c1=O (stereo unspecified)
> 100 µM: [15]
inactive: [1] > 100 µM | [2] 54.6 µM | [3] > 100 µM | [4] > 100 µM | [5] > 100 µM | [6] > 100 µM | [7] > 100 µM | [8] > 100 µM | [9] > 100 µM | [10] 22.6 µM | [12] > 100 µM | [13] > 100 µM | [14] 21.1 µM | [16] > 100 µM | [17] > 100 µM | [18] > 100 µM | [19] > 100 µM | [58] > 100 µM | [20] > 100 µM | [21] > 100 µM | [22] > 100 µM | [23] > 100 µM | [24] > 100 µM | [25] > 100 µM | [26] > 100 µM | [27] > 100 µM | [28] > 100 µM | [29] > 100 µM | [30] > 100 µM | [31] > 100 µM | [32] > 100 µM | [33] 26.2 µM | [34] 46 µM | [35] > 100 µM | [36] > 100 µM | [37] > 100 µM | [38] > 100 µM | [39] > 100 µM | [40] > 100 µM | [41] > 100 µM | [43] > 100 µM | [44] > 100 µM | [45] > 100 µM | [46] > 100 µM | [47] > 100 µM | [48] > 100 µM | [49] > 100 µM | [51] > 100 µM | [52] 74 µM | [53] > 100 µM | [54] 43.2 µM | [55] > 100 µM | [56] > 100 µM | [57] > 100 µM

CC1=CCC(C)=Nc2nc3ccccc3n21
> 100 µM: [15]
inactive: [1] > 100 µM | [2] > 100 µM | [3] > 100 µM | [4] > 100 µM | [5] > 100 µM | [6] > 100 µM | [7] > 100 µM | [8] > 100 µM | [9] > 100 µM | [10] > 100 µM | [11] > 100 µM | [12] > 100 µM | [13] > 100 µM | [14] > 100 µM | [16] > 100 µM | [17] > 100 µM | [18] > 100 µM | [19] > 100 µM | [58] > 100 µM | [20] > 100 µM | [21] 23.2 µM | [22] > 100 µM | [23] > 100 µM | [24] > 100 µM | [25] > 100 µM | [26] > 100 µM | [27] > 100 µM | [28] > 100 µM | [29] > 100 µM | [30] > 100 µM | [31] > 100 µM | [32] > 100 µM | [33] > 100 µM | [34] > 100 µM | [35] > 100 µM | [36] > 100 µM | [37] > 100 µM | [38] > 100 µM | [39] > 100 µM | [40] > 100 µM | [41] > 100 µM | [42] > 100 µM | [43] > 100 µM | [44] > 100 µM | [45] > 100 µM | [46] > 100 µM | [48] > 100 µM | [49] > 100 µM | [50] > 100 µM | [51] > 100 µM | [52] > 100 µM | [53] > 100 µM | [55] > 100 µM | [56] > 100 µM | [57] > 100 µM
